Measurements from ChEMBL document CHEMBL6182898, “Design, synthesis and bioevaluation of novel hydrazide derivatives as enhancers of immunotherapy and DNA-damage response in antitumor therapy” (Eur J Med Chem, 2025).
Calls of active or inactive are those of the source. No cut-off for these calls is given here.

Experiments:
4T1 [1] = experiment: Synergistic induction of DNA damage in mouse 4T1 cells implanted in mouse assessed as decrease in PARP level at 25 mg/kg/day in presence of olaparib by immunofluorescence based analysis; format: functional, organism-based
4T1 [2] = experiment: Synergistic induction of DNA damage in mouse 4T1 cells assessed as decrease in PARP1 level at 1 uM incubated for 24 hrs in presence of Olaparib by Western blot analysis; format: functional, cell-based
[3] = VRT (0 to t) in male Sprague-Dawley rat at 20 mg/kg, po measured for 0.083 to 12 hrs by LC-MS/MS analysis; format: ADME, organism-based; details: in vivo, time 0.083-12 hrs
B16-F10 [4] = experiment: Antitumor activity against mouse B16-F10 cells implanted in male C57BL/6J mouse at 25 mg/kg, IG treated for 14 days consecutively in presence of NP-19 relative to control; format: functional; details: B16-F10, po, 336 h, time 14 day, read-out: TGI
4T1 [5] = experiment: Synergistic induction of DNA damage in mouse 4T1 cells implanted in mouse assessed as decrease in PARP level at 25 mg/kg/day in presence of olaparib by Western blot analysis; format: functional, organism-based
[6] = VRT (0 to infinity) in male Sprague-Dawley rat at 2 mg/kg, iv measured for 0.083 to 12 hrs by LC-MS/MS analysis; format: ADME, organism-based; details: in vivo, time 0.083-12 hrs
[7] = Toxicity in male C57BL/6J mouse implanted with mouse B16-F10 cells assessed as histopathological damage in liver at 50 mg/kg, IG treated for 14 days consecutively by H and E staining based analysis; format: organism-based; details: in vivo, po, 336 h, time 14 day
[8] = VRT (0 to t) in male Sprague-Dawley rat at 2 mg/kg, iv measured for 0.083 to 12 hrs by LC-MS/MS analysis; format: ADME, organism-based; details: in vivo, time 0.083-12 hrs
4T1 [9] = experiment: Induction of DNA damage in mouse 4T1 cells assessed as decrease in PARP1 level at 2 uM incubated for 24 hrs by Western blot analysis; format: functional, cell-based
4T1 [10] = experiment: Synergistic induction of DNA damage in mouse 4T1 cells implanted in mouse assessed as decrease in PARP level at 25 mg/kg/day in presence of olaparib by IHC analysis; format: functional, organism-based
[11] = MRT (0 to t) in male Sprague-Dawley rat at 20 mg/kg, po measured for 0.083 to 12 hrs by LC-MS/MS analysis; format: ADME, organism-based; details: in vivo, time 0.083-12 hrs
[12] = Tmax in male Sprague-Dawley rat at 2 mg/kg, iv measured for 0.083 to 12 hrs by LC-MS/MS analysis; format: ADME, organism-based; details: in vivo, time 0.083-12 hrs
[13] = biological target: T1, Histone deacetylase 3 (Mus musculus) (UniProt O88895); experiment: In vivo inhibition of HDAC3 in mouse B16-F10 cells implanted in male C57BL/6J mouse assessed as decrease in PD-L1 level at 50 mg/kg, IG treated for 14 days consecutively by Western blot analysis; format: functional, organism-based; details: time 14.0 day
T1 sequence (whole entry): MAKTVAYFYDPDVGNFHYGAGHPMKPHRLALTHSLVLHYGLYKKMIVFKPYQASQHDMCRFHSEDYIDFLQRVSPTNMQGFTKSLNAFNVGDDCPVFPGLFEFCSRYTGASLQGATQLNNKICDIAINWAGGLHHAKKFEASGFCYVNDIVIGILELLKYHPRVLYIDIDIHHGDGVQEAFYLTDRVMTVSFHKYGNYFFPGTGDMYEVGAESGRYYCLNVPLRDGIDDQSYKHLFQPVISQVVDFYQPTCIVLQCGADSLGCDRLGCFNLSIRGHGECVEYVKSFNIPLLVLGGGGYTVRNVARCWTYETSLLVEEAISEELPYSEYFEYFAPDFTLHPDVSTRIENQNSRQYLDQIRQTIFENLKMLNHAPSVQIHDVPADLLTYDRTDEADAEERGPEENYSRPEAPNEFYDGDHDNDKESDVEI

[14] = VRT (0 to infinity) in male Sprague-Dawley rat at 20 mg/kg, po measured for 0.083 to 12 hrs by LC-MS/MS analysis; format: ADME, organism-based; details: in vivo, time 0.083-12 hrs
[15] = biological target: T1, Histone deacetylase 3 (Mus musculus); experiment: In vivo inhibition of HDAC3 in mouse B16-F10 cells implanted in male C57BL/6J mouse assessed as increase in Ac-H3 level at 25 mg/kg, IG treated for 14 days consecutively in presence of NP-19 by immunofluorescence based analysis; format: functional, organism-based; details: time 14.0 day
B16-F10 [16] = experiment: Induction of antitumor immunity in mouse B16-F10 cells implanted in male C57BL/6J mouse assessed as CD3+CD8+ T cell infiltration at 25 mg/kg, IG treated for 14 days consecutively in presence of NP-19 by flow cytometry (reference value: 10 %); format: functional; details: time 14 day
[17] = MRT (0 to t) in male Sprague-Dawley rat at 2 mg/kg, iv measured for 0.083 to 12 hrs by LC-MS/MS analysis; format: ADME, organism-based; details: in vivo, time 0.083-12 hrs
[18] = biological target: T1, Histone deacetylase 3 (Mus musculus); experiment: In vivo inhibition of HDAC3 in mouse B16-F10 cells implanted in male C57BL/6J mouse assessed as decrease in PD-L1 level at 50 mg/kg, IG treated for 14 days consecutively by immunofluorescence based analysis; format: functional, organism-based; details: time 14.0 day

- VRT(t) [3]: 6.38 h²
- VRT [6]: 0.98 h²
- VRT(t) [8]: 0.55 h²
- MRT last [11]: 154 min
- Tmax [12]: 4.8 min
- inhibition [13]: Active
- VRT [14]: 14.7 h²
- inhibition [15]: Active
- MRT last [17]: 20.4 min
- inhibition [18]: Active
Structure (SMILES): CCCNNC(=O)CCCCCCNC(=O)c1cnc(-c2ccc(NC(=O)OC(C)(C)C)cc2)s1
- Activity (4T1 [1]): Active
- Activity (4T1 [2]): Active
- inhibition in vivo at 25 mg/kg (B16-F10 [4]): 65%
- Activity (4T1 [5]): Active
- Activity [7]: Non-toxic
- Activity (4T1 [9]): Active
- Activity (4T1 [10]): Active
- Activity (B16-F10 [16]): 38%
